What was measured:
[1] = tested on: NCH644 glioma stem cell tumors in nude mice; experiment: NCH644-mCherry xenograft in nude mice, cells pre-incubated with peptide; type: in vivo, human cells in mouse; conditions: 5 days
Method: Mounting evidence supports a crucial role of cancer stem cells in the initiation or relapse of tumors. This is particularly the case for gliomas. Thus, we decided to evaluate to what extent MTP-PlexA1 would affect glioma stem cell (GSC) growth. To this end, we used the NCH644 human cell line derived from a patient biopsy. […] We next performed a sphere forming assay in which cells were plated into 96-well plates at a low density (30 cells per well) to monitor production of clones from individual cells growing as non-adherent gliomaspheres. A minimum of 30 cells per well was required to allow sufficient sphere production (composed of at least 8 cells) in a time frame compatible with drug testing. Visual control of sphere formation on a daily basis confirmed that cellular edifices were arising from single cells and not due to cell clumping. […] To address whether this inhibitory effect is sufficient to impede tumor development in vivo we performed a xenograft experiment. NCH644 GCS were grafted in the flank of nude mice in a way to obtain two bilateral tumors derived from either control cells without treatment or from cells that had been pre-incubated with MTP-PlexA1. This was done using a fluorescent version of the NCH644 cell line (mCherry-NCH644) allowing live monitoring of tumor appearance (Figure 7E). […]
Experiments were performed according to the Guide for Care and Use of Laboratory Animals (E67-6-482-21) and the European Directive with approval of the regional ethical committee (Reference AL/55/62/02/13). […] For the experiment conducted with cancer stem cell line NCH644mCherry, we performed bilateral grafting of 10^6 cells on each flank of 20 nude mice without treatment or pre-incubated for 1 hour with MTP-PlexA1 at 10–7 M. After 5 days, the fluorescence emission of developing tumors was recorded using the NightOwl system (Berthold) using appropriate excitation and emission filters (580 nm/620 nm respectively).

[2] = tested on: GBM tumors grafted in brain of immunocompromised mice; experiment: orthotopic GBM graft in mouse brain; type: in vivo, human cells in mouse; conditions: i.p., 1 μg/kg every 3 days for 3 weeks, 1.5 µg/kg 3 times per week
Method: To address the biological consequences of MTP-PlexA1-mediated inhibition of PlexA1 we used the U118MG-Luc glioma cell line genetically engineered to express the luciferase reporter gene. […] Cells were then grafted subcutaneously and tumor growth was monitored every 5 days for a total period of 20 days. […] The quantitative analysis of the cumulated luminescent signal acquired all along the protocol confirmed the strong reduction of tumor development translating into a marked 75% reduction of the averaged luminescent signal at the end point (Figure 6C). […] However, responses were strong for 8 out of 10 mice with some responses close to 100%, all of them being at least Partial Response (PR) (Figure 6D). In order to clarify the mechanism by which MTP-PlexA1 is exerting tumor growth inhibition we collected tumors and analyzed them histologically.
Supplementary Figure S5: We performed an orthotropic grafting experiment to monitor the effect of MTP-PlexA1 on GBM tumors developing in their native microenvironment. All procedures using animals are submitted to the Animal Care and Use Committee of AL/54/61/02/13. Immunocompromised mice are anesthetized with isoflurane 3% (BAXTER), under 0.5 L O2, and received a subcutaneous injection of ketofen 1% 1.5 mL/Kg (MERIAL). The scalp is incised and 100 000 cells of the dissociated GBM biopsy were engrafted with a 2 µL Hamilton syringe (HARVARD APPARATUS; HAM-88400) mounted on a stereotaxic set up (HARVARD APPARATUS) to inject cells at the following coordinates from the bregma x: −2 mm; y: +1 mm; z: −3.5 mm at a speed of 0.66 µl/min, 5 minutes after the syringe introduction. […] Tumor volume is calculated by the addition of every partial volume: [V total = Σ partial volumes = Σ d1 × (S1 + S2)/2 + d2 x (S2 + S3)/2 + … + dn x […]]. […] The immunostaining procedure used to quantify proliferation and vascularization of the tumor is described in the method section.While not strongly impacting tumor volume (−14.5%, p = 0.54, Mann Whitney test) the intraperitoneal […]

U118MG-Luc cells = experiment: MTT proliferation assay, U118MG-Luc; type: cell-based, human; conditions: 24 h culture

Sequence: TLPAIVGIGGGGGLLLLVIVAVLIAYKRK [MTP-PlexA1, synthetic transmembrane peptide mimicking the TMD of PlexA1]
- change of number of detectable tumors ([1]; NCH644 cells pre-incubated 1 h at 10–7 M, p = 0.0032, Mann Whitney): −71.4%
- detectable tumors after grafting pre-incubated cells ([1]; NCH644 cells pre-incubated 1 h at 10–7 M, untreated control 14 tumors in 20 mice, p = 0.0032): 4 out of 20
- size of tumors that were able to grow ([1]; NCH644 cells pre-incubated, fluorescence, p = 0.4258): comparable to the one of the control group
- change of tumor volume, orthotopic ([2]; n = 12, p = 0.54, Mann Whitney): −14.5%
- change of PH3 positive cells, orthotopic ([2]; p = 0.0023): −38.3%
- change of angiogenesis, orthotopic ([2]; p = 0.0378): −14.3%
- proliferation of U118MG-Luc cells (U118MG-Luc cells): reduced proliferation in a dose dependent manner

Source: article PMC5295395, “Inhibition of PlexA1-mediated brain tumor growth and tumor-associated angiogenesis using a transmembrane domain targeting peptide” (Oncotarget, 2016)
